Experimental findings from article PMC2723721 (Bioorganic & medicinal chemistry, 2009) are described below.

Structures are written as SMILES. Some results are limits rather than exact numbers.

In this test the target is p47phox (Homo sapiens, UniProt P14598). The test is described as follows: ELISA: his-p47phox binding to immobilized biotin-p22phox peptide with […] IAA. It is filed as biochemical.
p47phox, sequence (P13498 2-195): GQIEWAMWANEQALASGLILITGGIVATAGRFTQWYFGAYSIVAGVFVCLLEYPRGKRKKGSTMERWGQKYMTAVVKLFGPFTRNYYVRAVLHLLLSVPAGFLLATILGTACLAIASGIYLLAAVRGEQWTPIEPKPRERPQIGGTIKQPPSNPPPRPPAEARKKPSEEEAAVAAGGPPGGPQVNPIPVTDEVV
p47phox, sequence (P14598 whole entry): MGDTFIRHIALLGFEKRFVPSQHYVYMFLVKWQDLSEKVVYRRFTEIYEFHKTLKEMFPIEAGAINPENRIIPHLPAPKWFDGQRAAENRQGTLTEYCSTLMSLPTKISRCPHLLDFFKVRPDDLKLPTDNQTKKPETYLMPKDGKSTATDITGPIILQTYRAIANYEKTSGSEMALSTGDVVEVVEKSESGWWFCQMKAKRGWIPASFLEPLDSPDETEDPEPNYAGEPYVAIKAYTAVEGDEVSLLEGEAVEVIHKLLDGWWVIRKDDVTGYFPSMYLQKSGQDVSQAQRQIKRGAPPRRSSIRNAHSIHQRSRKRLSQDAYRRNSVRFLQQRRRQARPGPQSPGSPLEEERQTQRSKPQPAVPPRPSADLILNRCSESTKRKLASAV

Consider `NC(=O)CI` [IAA, iodoacetamide], for which the “% drop in bound p47phox at 1 μM” value is reported as > 50 % drop in bound p47phox at 1 μM.
